Publication PMC10947579, “Structure‐Based Demystification of Radical Catalysis by a Coenzyme B12 Dependent Enzyme—Crystallographic Study of Glutamate Mutase with Cofactor Homologues” (Angewandte Chemie (Weinheim an Der Bergstrasse, Germany), 2022)

Target: T1, glutamate mutase (GM) (Clostridium cochlearium, UniProt P80077+P80078)
T1 construct: gene glmE; hetero-tetramer (two epsilon, two sigma subunits), reconstituted with cobalamin
T1 sequence (P80077 1-483): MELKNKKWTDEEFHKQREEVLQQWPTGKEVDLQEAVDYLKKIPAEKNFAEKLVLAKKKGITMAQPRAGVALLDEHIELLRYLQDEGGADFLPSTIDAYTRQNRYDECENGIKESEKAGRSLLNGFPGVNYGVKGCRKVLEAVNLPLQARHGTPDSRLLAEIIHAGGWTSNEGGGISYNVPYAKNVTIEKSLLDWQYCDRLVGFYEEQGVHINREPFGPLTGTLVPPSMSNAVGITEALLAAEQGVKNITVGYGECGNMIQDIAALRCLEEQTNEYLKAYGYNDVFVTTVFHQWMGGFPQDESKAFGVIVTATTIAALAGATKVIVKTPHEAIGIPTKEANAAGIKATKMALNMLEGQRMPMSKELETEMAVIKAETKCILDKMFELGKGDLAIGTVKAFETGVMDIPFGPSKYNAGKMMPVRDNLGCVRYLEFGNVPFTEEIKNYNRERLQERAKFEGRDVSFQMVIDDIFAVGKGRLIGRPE
T1 sequence (P80078 1-137): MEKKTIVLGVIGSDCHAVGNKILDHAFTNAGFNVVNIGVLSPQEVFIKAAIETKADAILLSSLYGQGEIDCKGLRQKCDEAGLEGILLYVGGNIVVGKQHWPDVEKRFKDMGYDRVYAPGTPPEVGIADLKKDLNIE
Test: X-ray crystal structure, […] Å
Assay type: binding
Settings: with AdoMeCbl (also bound in the AdoEtCbl complex 6H9F); pseudo-substrate in substrate site of epsilon subunit (arginine claw)

Q: For O=C(O)[C@@H](O)[C@H](O)C(=O)O [(S,S)‐tartrate], which “X-ray crystal structure, 1.8 Å” value is on record?
A: strong polar binding interactions with the carboxylate groups of an (S,S)‐tartrate ion
